Source: ChEMBL document CHEMBL1152755, “Synthesis and cytotoxic properties of 4,11-bis[(aminoethyl)amino]anthra[2,3-b]thiophene-5,10-diones, novel analogues of antitumor anthracene-9,10-diones” (2009)
Activity calls are given as the source filed them. The rule behind the calls is not given here.

Legend:
HCT-116 = test: Resistance index, ratio IC50 for HCT116 cells to IC50 for p53 deleted human HCT116 cells; format: functional
K562 = test: Resistance index, ratio IC50 for human K562 cells to IC50 for P-gp positive human K562 cells; format: functional
[1] = target: Telomerase reverse transcriptase (Homo sapiens) (UniProt O14746); test: Inhibition of telomerase at 1 uM by TRAP assay
[2] = target: T1, DNA topoisomerase 1 (Homo sapiens) (UniProt P11387); test: Inhibition of topoisomerase 1-mediate pHot DNA relaxation measured by electrophoretic mobility
T1 sequence (whole entry): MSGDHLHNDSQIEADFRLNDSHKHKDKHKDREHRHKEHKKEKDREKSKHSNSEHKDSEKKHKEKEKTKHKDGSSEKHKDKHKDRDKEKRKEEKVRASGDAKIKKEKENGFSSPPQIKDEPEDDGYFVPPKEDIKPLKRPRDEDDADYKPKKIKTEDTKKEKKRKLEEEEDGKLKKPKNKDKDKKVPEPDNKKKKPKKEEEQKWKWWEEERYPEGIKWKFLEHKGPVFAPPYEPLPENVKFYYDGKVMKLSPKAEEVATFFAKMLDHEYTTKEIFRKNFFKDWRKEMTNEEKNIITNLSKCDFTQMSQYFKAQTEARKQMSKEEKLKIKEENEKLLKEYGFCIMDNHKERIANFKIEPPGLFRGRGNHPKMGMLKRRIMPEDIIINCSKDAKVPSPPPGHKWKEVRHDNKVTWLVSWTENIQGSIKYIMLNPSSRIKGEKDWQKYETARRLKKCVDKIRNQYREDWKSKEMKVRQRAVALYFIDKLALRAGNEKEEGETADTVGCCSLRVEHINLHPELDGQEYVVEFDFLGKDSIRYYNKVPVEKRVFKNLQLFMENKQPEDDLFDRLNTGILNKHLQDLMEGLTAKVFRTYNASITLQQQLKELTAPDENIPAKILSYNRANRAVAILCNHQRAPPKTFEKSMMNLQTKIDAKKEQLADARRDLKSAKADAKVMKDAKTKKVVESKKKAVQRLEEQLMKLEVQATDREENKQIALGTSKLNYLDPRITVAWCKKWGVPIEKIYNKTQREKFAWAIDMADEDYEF

Sequence of Telomerase reverse transcriptase (Homo sapiens) (O14746 whole entry): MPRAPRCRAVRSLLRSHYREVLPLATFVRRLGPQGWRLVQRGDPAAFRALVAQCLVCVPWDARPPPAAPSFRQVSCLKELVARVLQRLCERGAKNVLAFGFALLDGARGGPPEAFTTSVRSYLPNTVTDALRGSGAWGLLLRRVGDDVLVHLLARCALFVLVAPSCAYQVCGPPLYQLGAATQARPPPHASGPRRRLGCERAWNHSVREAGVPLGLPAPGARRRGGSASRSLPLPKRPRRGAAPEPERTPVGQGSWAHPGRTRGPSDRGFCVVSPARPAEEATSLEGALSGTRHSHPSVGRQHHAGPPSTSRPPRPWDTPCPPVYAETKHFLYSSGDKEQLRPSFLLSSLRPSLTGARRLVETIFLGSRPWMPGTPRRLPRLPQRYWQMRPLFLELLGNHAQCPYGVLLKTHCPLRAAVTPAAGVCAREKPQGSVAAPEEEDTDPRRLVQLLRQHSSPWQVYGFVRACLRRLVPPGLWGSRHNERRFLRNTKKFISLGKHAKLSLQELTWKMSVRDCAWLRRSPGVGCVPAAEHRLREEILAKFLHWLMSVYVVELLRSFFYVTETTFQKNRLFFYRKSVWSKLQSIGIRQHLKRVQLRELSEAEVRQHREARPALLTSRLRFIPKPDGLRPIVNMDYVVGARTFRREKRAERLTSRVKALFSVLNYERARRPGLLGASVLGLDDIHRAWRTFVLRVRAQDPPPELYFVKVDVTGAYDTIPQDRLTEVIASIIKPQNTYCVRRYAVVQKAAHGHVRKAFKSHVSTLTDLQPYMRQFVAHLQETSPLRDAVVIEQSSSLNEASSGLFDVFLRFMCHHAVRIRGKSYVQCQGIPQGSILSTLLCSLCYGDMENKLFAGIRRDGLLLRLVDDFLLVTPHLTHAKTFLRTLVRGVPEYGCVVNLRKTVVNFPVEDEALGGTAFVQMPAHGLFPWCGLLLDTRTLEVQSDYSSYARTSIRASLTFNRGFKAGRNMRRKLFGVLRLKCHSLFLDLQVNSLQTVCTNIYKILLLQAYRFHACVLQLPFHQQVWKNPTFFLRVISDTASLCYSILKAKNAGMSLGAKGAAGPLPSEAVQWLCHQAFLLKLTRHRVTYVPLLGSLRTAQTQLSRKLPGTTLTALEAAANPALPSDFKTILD

Activity [1] | Activity [2] | SMILES | Ratio IC50 (HCT-116) | Ratio IC50 (K562)
 |  | Cc1csc2c(NCCN)c3c(c(NCCN)c12)C(=O)c1ccccc1C3=O | >83 | 5
Active |  | CN(CCNc1c2c(c(NCCN(C)C(=N)N)c3sccc13)C(=O)c1ccccc1C2=O)C(=N)N | >24 | 
 |  | CN(C)CCNc1c2c(c(NCCN(C)C)c3sc(C(=O)NCCO)cc13)C(=O)c1ccccc1C2=O |  | >6
 |  | CNCCNc1c2c(c(NCCNC)c3c(C)csc13)C(=O)c1ccccc1C2=O | 2.7 | 2
 |  | CNCCNc1c2c(c(NCCNC)c3[nH]ccc13)C(=O)c1ccccc1C2=O | 1 | 3.1
Active | Active | CNCCNc1c2c(c(NCCNC)c3sccc13)C(=O)c1ccccc1C2=O | 0.6 | 1.4
 |  | Cc1csc2c(NCCN(C)C)c3c(c(NCCN(C)C)c12)C(=O)c1ccccc1C3=O | 8.4 | 1.8
 |  | CNC(=O)c1cc2c(NCCN(C)C)c3c(c(NCCN(C)C)c2s1)C(=O)c1ccccc1C3=O | 4.2 | 1.1
 |  | CN(C)CCNc1c2c(c(NCCN(C)C)c3sc(C(=O)NN)cc13)C(=O)c1ccccc1C2=O | >25 | >90
 |  | CN(C)CCNc1c2c(c(NCCN(C)C)c3sccc13)C(=O)c1ccccc1C2=O | 0.6 | 2.3
 |  | CNCCNc1c2c(c(NCCNC)c3sc(C(=O)NC)cc13)C(=O)c1ccccc1C2=O |  | >11
 |  | COc1cccc2c1C(=O)c1c(O)c3c(c(O)c1C2=O)C[C@@](O)(C(=O)CO)C[C@@H]3O[C@H]1C[C@H](N)[C@H](O)[C@H](C)O1 [DOXORUBICIN] |  | 51
 |  | CC(=O)OCCNCCNc1c2c(c(NCCNCCOC(C)=O)c3sccc13)C(=O)c1ccccc1C2=O |  | >18
Active |  | N=C(N)NCCNc1c2c(c(NCCNC(=N)N)c3sccc13)C(=O)c1ccccc1C2=O | >25 | 3.4
 |  | O=C1c2ccccc2C(=O)c2c1c(NCCNCCO)c1ccsc1c2NCCNCCO |  | >12
